One block for each compound: values may come before it.
Tests used:
VEGF = experiment: qRT-PCR gene expression of VEGF in AMD RPE cybrid cells; type: cell-based, human; conditions: 72 hr; for VEGF gene expression, Mean ± SEM: AMD UN = 1
Experimental: (§1) Quantitative Real-Time PCR: RNA extraction, cDNA synthesis, and qRT-PCR analysis were performed as described previously (73). QuantiTect Primer Assays were used to study the expression of Caspase-3 gene (Cat. #QT00023947, Qiagen, Germantown, Md.), BAX gene (Cat. #QT00031192, Qiagen), HIF1α gene (Cat. #QT00083664, Qiagen), CFH gene (Cat. #QT00001624, Qiagen), and SOD2 gene (Cat. #QT01008693, Qiagen). KiCqStart® SYBR® green primers were used to examine the expression of PGC-1a, NRF-1, NRF-2, PPAR-α, PPAR-γ, VEGF, IL-18, and IFNB1 genes (Cat. #kspq12012, Sigma, St. Louis, Mo.). Specific housekeeper genes used were HPRT1 (Cat. #QT00059066, Qiagen), ALAS variant 1 (Cat. #QT01160467, Qiagen), and HMBS (Cat. #QT00014462). TaqMan gene expression master mix (Cat. #4369016, Life Technologies) and TaqMan gene expression assays were used to examine the expression of the MT-RNR2 gene (Assay ID: Hs02596860_s1, Life Technologies), for which GAPDH (Assay ID: Hs02786624_g1, Life Technologies) was used as a housekeeper gene. Data analysis was performed using ΔΔCt method which was calculated by subtracting ΔCt of the AMD group from ΔCt of the normal group. ΔCt was the difference between the Cts (threshold cycles) of the target gene and Cts of the housekeeper gene (reference gene). Fold change was calculated using the following formula: Fold change=2^ΔΔct.

IL-18 = experiment: qRT-PCR gene expression of IL-18 in AMD RPE cybrid cells; type: cell-based, human; conditions: 72 hr, AMD UN = 1
Experimental: as §1

Caspase-3 = experiment: qRT-PCR gene expression of Caspase-3 in AMD RPE cybrid cells; type: cell-based, human; conditions: 72 hr; for Caspase-3 gene expression, Mean ± SEM: AMD UN = 1
Experimental: as §1

PGC-1α = experiment: qRT-PCR gene expression of PGC-1α in AMD RPE cybrid cells; type: cell-based, human; conditions: 72 hr, AMD UN = 1
Experimental: as §1

[1] = system: AMD ARPE-19 transmitochondrial cybrid cells; experiment: Cell viability assay (MTT assay); conditions: for cell viability, Mean ± SEM: AMD UN = 1
Experimental: All cybrids used in this study belonged to the ‘H’ mitochondrial DNA haplogroup. […] Stock solutions of 20 mM kaempferol and 10 mM telmisartan were prepared in DMSO and were diluted in culture media to obtain the following working concentrations: kaempferol at 5 μM, 10 μM, and 20 μM; telmisartan at 2.5 μM, 5 μM, and 10 μM. Cell viability assay (MTT assay): The numbers of viable cells were measured using the MTT (3-(4,5-dimethylthiazol-2-yl)-2,5-diphenyltetrazolium bromide) assay. […] Cells were incubated at 37° C. for 1 h, followed by addition of DMSO. Absorbance was measured at 570 nm and background absorbance measured at 630 nm. Normalized absorbance values were obtained by subtracting background absorbance from signal absorbance. The colorimetric signal obtained was proportional to the cell number.

esterase = experiment: fenofibrate to fenofibrate* conversion (first pass) and its block by esterase inhibitors; conditions: co-administered with fenofibrate
SOD2 = experiment: qRT-PCR gene expression of SOD2 in AMD RPE cybrid cells; type: cell-based, human; conditions: 72 hr, AMD UN = 1
Experimental: as §1

[2] = system: AMD ARPE-19 transmitochondrial cybrid cells; experiment: CellLight Mitochondrial GFP staining and confocal microscopy; type: cell-based, human; conditions: fenofibrate 50 μM
Experimental: CellLight Mitochondrial GFP staining and Confocal microscopy: Staining with CellLight Mitochondrial GFP probe (Cat. #C10600, Thermo Fisher Scientific, MA, USA) and confocal microscopy were performed as described previously (74). Cells were plated in 4-well tissue culture chamber slides, stained with CellLight mtGFP for 24 hr and incubated overnight at 37° C. The cells were washed with 1×TBS (Tris buffered saline), fixed in paraformaldehyde and mounted in DAPI. Confocal z-stack images were captured using the LSM-700 Confocal microscope (Zeiss, Thornwood, N.Y., USA). Images were quantified using ZEN 2 lite software (Zeiss).
RPE cells were transduced with CellLight reagent which is a GFP-E1 alpha pyruvate dehydrogenase leader peptide construct with a mammalian promoter. This fluorescent baculoviral fusion construct provides precise targeting to mitochondria.

[3] = system: AMD ARPE-19 transmitochondrial cybrid cells; experiment: MitoSOX assay (mitochondrial superoxide); type: cell-based, human; conditions: AMD cybrids, fenofibrate 50 μM
Experimental: MitoSOX assay: The fluorogenic MitoSOX Red dye (Cat. #M36008, Invitrogen, Grand Island, N.Y., USA) is a live-cell permeant reagent that detects mitochondrial superoxide in cells. MitoSOX Red reagent oxidized by superoxide has red fluorescence that can be quantified. AMD cybrids were plated in 24-well tissue culture plates. Stock solution of 5 mM MitoSOX reagent was diluted with HBSS (Hank's balanced salt solution) buffer to obtain a 5 μM working solution. Cells were treated with 5 μM MitoSOX reagent and incubated for 10 min at 37° C. Cells were then washed with HBSS buffer, and fluorescence was measured at excitation/emission maxima of 510/580 nm.

[4] = system: AMD ARPE-19 transmitochondrial cybrid cells; experiment: Mitochondrial membrane potential (JC-1) assay; type: cell-based, human; conditions: AMD cybrids; fenofibrate 50 μM; compared to untreated
Experimental: Mitochondrial membrane potential (JC-1) assay: The JC-1 assay uses a unique cationic dye i.e., 5,5′,6,6′-tetrachloro-1,1′,3,3′-tetraethylbenzimidazolylcarbocyanine iodide, to detect loss of mitochondrial membrane potential. JC-1 1× reagent was prepared by diluting 100× JC-1 reagent in assay buffer to 1:100 dilutions. […] 1× JC-1 reagent was added to cells and incubated for 15 min at 37° C. JC-1 reagent in the wells was then replaced with DPBS and fluorescence was measured as follows: Red fluorescence (Live cells): Excitation 550 nm and Emission 600 nm; Green fluorescence (Apoptotic cells): Excitation 485 nm and Emission 535 nm. Ratio of Red/Green was used for analysis. Lower ratio corresponded to higher apoptotic/dead cell number.

[5] = only kaempferol 20 μM, compared to untreated AMD cybrids

- block of conversion of fenofibrate to fenofibrate* (esterase): largely block conversion to fenofibrate*
SMILES: CCCc1nc2c(C)cc(-c3nc4ccccc4n3C)cc2n1Cc1ccc(-c2ccccc2C(=O)O)cc1 [telmisartan]
- VEGF gene expression, Mean ± SEM (VEGF; telmisartan 10 μM only): 0.52 ± 0.19
- IL-18 gene expression, Mean ± SEM (IL-18; telmisartan 10 μM only): 0.71 ± 0.25
- Caspase-3 gene expression, Mean ± SEM (Caspase-3; telmisartan 10 μM only): 0.86 ± 0.06
- PGC-1a gene expression, Mean ± SEM (PGC-1α; telmisartan 10 μM only): 1.40 ± 0.48
- cell viability, Mean ± SEM ([1]; 48 hr, telmisartan 10 μM only): 0.95 ± 0.11
- cell viability, Mean ± SEM ([1]; 72 hr, telmisartan 10 μM only): 0.99 ± 0.09
- SOD2 gene expression, Mean ± SEM (SOD2; telmisartan 10 μM only): 1.71 ± 0.46

SMILES: CC(C)OC(=O)C(C)(C)Oc1ccc(C(=O)c2ccc(Cl)cc2)cc1 [fenofibrate]
- mtGFP fluorescence intensity (mean±SEM) ([2]; AMD UN = 1): 2.73±0.39
- increase in mtGFP fluorescence intensity ([2]; compared to untreated): 173%
- mitochondrial superoxides, MitoSOX fluorescence (mean±SEM) ([3]; AMD UN = 1): 0.77±0.04
- lower amount of mitochondrial superoxides (MitoSOX assay) ([3]; compared to untreated): 23%
- increased mitochondrial membrane potential (JC-1 assay) [4]: 116%
- cell viability, Mean ± SEM ([1]; 48 hr, fenofibrate 50 μM only): 1.33 ± 0.09
- cell viability, Mean ± SEM ([1]; 72 hr, fenofibrate 50 μM only): 1.37 ± 0.07
- higher cell viability ([1]; AMD cells, fenofibrate 50 μM, compared to untreated): 51%

- block of conversion of fenofibrate to fenofibrate* (esterase): largely block conversion to fenofibrate*
SMILES: O=c1c(O)c(-c2ccc(O)cc2)oc2cc(O)cc(O)c12 [kaempferol, 3,5,7-trihydroxy-2-(4-hydroxyphenyl)-4H-1-benzopyran-4-one]
- VEGF gene expression, Mean ± SEM (VEGF; kaempferol 20 μM only): 0.42 ± 0.16
- VEGF downregulation (VEGF; [5]): 58%
- IL-18 gene expression, Mean ± SEM (IL-18; kaempferol 20 μM only): 0.78 ± 0.13
- Caspase-3 gene expression, Mean ± SEM (Caspase-3; kaempferol 20 μM only): 0.74 ± 0.045
- Caspase-3 downregulation (Caspase-3; [5]): 26%
- PGC-1a gene expression, Mean ± SEM (PGC-1α; kaempferol 20 μM only): 1.82 ± 0.57
- cell viability, Mean ± SEM ([1]; 48 hr, kaempferol 20 μM only): 1.037 ± 0.1413
- cell viability, Mean ± SEM ([1]; 72 hr, kaempferol 20 μM only): did not show any difference in cell viability
- cell viability, Mean ± SEM ([1]; 72 hr, kaempferol 20 μM only, listed as kempferol): 1.259 ± 0.1060
- SOD2 gene expression, Mean ± SEM (SOD2; kaempferol 20 μM only): 0.88 ± 0.22

Reference: US20220211654A1, “MATERIALS AND METHODS FOR TREATING AGE-RELATED MACULAR DEGENERATION” (THE REGENTS OF THE UNIVERSITY OF CALIFORNIA, priority 2019, published 2022)
